Data as given in US9179694B2, “Method and composition for enhancing milk production and milk component concentrations” (PURINA ANIMAL NUTRITION LLC, priority 2003, dated 2015).
Marks after values point to notes of the source that are not given here.

Assay: True protein content of produced milk in sorbitol feeding trials
Assay type: in vivo, Holstein cows
Settings: for True Protein in Produced Milk: Pre-Partum Trial #1 (75/0/0 g/day in wk −3..−1/+1..+4/+5..+8)
Experimental: To determine the percent of total protein, wet basis, in a sample, the actual weight of total protein is determined in accordance with Method #991.20 (33.2.11) of Official Methods of Analysis, Association of Official Analytical Chemists (AOAC) (16th Ed., 1995). The value determined by the above method yields “total Kjeldahl nitrogen,” which is equivalent to “total protein” since the above method incorporates a factor that accounts for the average amount of nitrogen in protein. Since any and all total Kjeldahl nitrogen determinations presented herein are based on the above method, the terms “total Kjeldahl nitrogen” and “total protein” are used interchangeably herein. Furthermore, those skilled in the art will recognize that the term “total Kjeldahl nitrogen” is generally used in the art to mean “total protein” with the understanding that the factor has been applied. The weight percent total protein, wet basis, is calculated by dividing the actual weight of total protein by the actual weight of the sample. The weight percent of true protein, wet basis, for a particular sample is calculated after first determining the wet basis weight percent of total Kjeldahl nitrogen and the wet basis weight percent of non-protein nitrogen in the sample. The wet basis weight percent of total Kjeldahl nitrogen in the sample is determined using the method referenced above. The wet basis weight percent of non-protein nitrogen (NPN) in the sample is determined in accordance with Method #991.21 (33.2.12) of Official Methods of Analysis, Association of Official Analytical Chemists (AOAC) (16th Ed., 1995). The weight percent of true protein, wet basis, in the sample is then determined by subtracting the wet basis weight percent of non-protein nitrogen in the sample from the wet basis weight percent of total Kjeldahl nitrogen in the sample. Each cow of each of the six different trials (Control Trial #1, Control Trial #2, Pre-Partum Trial #1, Pre-Partum Trial #2, Pre/Post Trial #1, and Pre/Post Trial #2) was milked three times daily and the weight of produced milk by each cow was recorded at each milking. The milk from each cow was sampled once per week (⅓ of the sample volume from each of the three milkings occurring on the weekly milk sampling day) and was analyzed for true protein, total fat, lactose, and total solids, as detailed in the property determination and characterization techniques presented above. Additionally, samples of blood were periodically obtained from each cow during the four trials (Control Trial 2, Pre-Partum Trial #2, Pre/Post Trial #1, and Pre/Post Trial #2) encompassed in Example Two and were analyzed for non-esterified fatty acid (NEFA) content as detailed in the property determination and characterization techniques presented above. No NEFA analysis was conducted on the cows employed in Control Trial #1 or Pre-Partum Trial #1 that are the subject of Example One. Example One includes Control Trial #1 and Pre-Partum Trial #1. Both primiparious cows and multiparious cows were included in Control Trial #1 and Pre-Partum Trial #1. Five primiparious cows and fifteen multiparious cows were included in Control Trial #1; likewise, five primiparious cows and fifteen multiparious cows were included in Pre-Partum Trial #1. All cows included in Control Trial #1 and Pre-Partum Trial #1 were Holsteins. Example Two includes Control Trial #2, Pre-Partum Trial #2, Pre/Post Trial #1, and Pre/Post Trial #2. Only multiparious, Holstein cows were included in Control Trial #2, Pre-Partum Trial #1, Pre/Post Trial #1, and Pre/Post Trial #2. Eighteen multiparious cows were included in both Control Trial #2 and Pre-Partum Trial #2, while sixteen multiparious cows were included in Pre/Post Trial #1 and seventeen multiparious cows were included in Pre/Post Trial #2.

OC[C@@H](O)[C@@H](O)[C@H](O)[C@@H](O)CO [sorbitol]
True Protein in Produced Milk (multiparious cows, weeks +1 through +8): 2.82 wt %
True Protein in Produced Milk (primiparious cows, weeks +1 through +8): 2.9 wt %
increase in true protein concentration in the produced milk (Pre-Partum Trial #1 (75 g/day wk −3..−1 only) versus Control Trial #1, primiparious cows, weeks +1 through +8): 7.4%
True Protein Content of Produced Milk (Pre-Partum Trial #2 (75/0/100 g/day in wk −3..−1/+1..+4/+5..+8), multiparious cows, week +1): 3.95 weight %
True Protein Content of Produced Milk (Pre-Partum Trial #2 (75/0/100 g/day in wk −3..−1/+1..+4/+5..+8), multiparious cows, week +2): 3.14 weight %
True Protein Content of Produced Milk (Pre-Partum Trial #2 (75/0/100 g/day in wk −3..−1/+1..+4/+5..+8), multiparious cows, week +3): 2.81 weight %
True Protein Content of Produced Milk (Pre-Partum Trial #2 (75/0/100 g/day in wk −3..−1/+1..+4/+5..+8), multiparious cows, week +4): 2.71^ab weight %
True Protein Content of Produced Milk (Pre-Partum Trial #2 (75/0/100 g/day in wk −3..−1/+1..+4/+5..+8), multiparious cows, week +5): 2.63 weight %
True Protein Content of Produced Milk (Pre-Partum Trial #2 (75/0/100 g/day in wk −3..−1/+1..+4/+5..+8), multiparious cows, week +6): 2.62 weight %
True Protein Content of Produced Milk (Pre-Partum Trial #2 (75/0/100 g/day in wk −3..−1/+1..+4/+5..+8), multiparious cows, week +7): 2.60 weight %
True Protein Content of Produced Milk (Pre-Partum Trial #2 (75/0/100 g/day in wk −3..−1/+1..+4/+5..+8), multiparious cows, week +8): 2.56 weight %
True Protein Content of Produced Milk (Pre-Partum Trial #2 (75/0/100 g/day in wk −3..−1/+1..+4/+5..+8), multiparious cows, weeks +1 through +4): 3.11 weight %
True Protein Content of Produced Milk (Pre-Partum Trial #2 (75/0/100 g/day in wk −3..−1/+1..+4/+5..+8), multiparious cows, weeks +1 through +8): 2.86 weight %
True Protein Content of Produced Milk (Pre-Partum Trial #2 (75/0/100 g/day in wk −3..−1/+1..+4/+5..+8), multiparious cows, weeks +5 through +8): 2.60 weight %
True Protein Content of Produced Milk (Pre/Post Trial #1 (150/125/100 g/day in wk −3..−1/+1..+4/+5..+8), multiparious cows, week +1): 4.01 weight %
True Protein Content of Produced Milk (Pre/Post Trial #1 (150/125/100 g/day in wk −3..−1/+1..+4/+5..+8), multiparious cows, week +1, two-trial comparison with Control Trial #2 (Table 24)): 4.01 weight %
True Protein Content of Produced Milk (Pre/Post Trial #1 (150/125/100 g/day in wk −3..−1/+1..+4/+5..+8), multiparious cows, week +2): 3.17 weight %
True Protein Content of Produced Milk (Pre/Post Trial #1 (150/125/100 g/day in wk −3..−1/+1..+4/+5..+8), multiparious cows, week +2, two-trial comparison with Control Trial #2 (Table 24)): 3.17 weight %
True Protein Content of Produced Milk (Pre/Post Trial #1 (150/125/100 g/day in wk −3..−1/+1..+4/+5..+8), multiparious cows, week +3): 2.85 weight %
True Protein Content of Produced Milk (Pre/Post Trial #1 (150/125/100 g/day in wk −3..−1/+1..+4/+5..+8), multiparious cows, week +3, two-trial comparison with Control Trial #2 (Table 24)): 2.85 weight %
True Protein Content of Produced Milk (Pre/Post Trial #1 (150/125/100 g/day in wk −3..−1/+1..+4/+5..+8), multiparious cows, week +4): 2.73^ab weight %
True Protein Content of Produced Milk (Pre/Post Trial #1 (150/125/100 g/day in wk −3..−1/+1..+4/+5..+8), multiparious cows, week +4, two-trial comparison with Control Trial #2 (Table 24)): 2.73 weight %
True Protein Content of Produced Milk (Pre/Post Trial #1 (150/125/100 g/day in wk −3..−1/+1..+4/+5..+8), multiparious cows, week +5): 2.65 weight %
True Protein Content of Produced Milk (Pre/Post Trial #1 (150/125/100 g/day in wk −3..−1/+1..+4/+5..+8), multiparious cows, week +5, two-trial comparison with Control Trial #2 (Table 24)): 2.65 weight %
True Protein Content of Produced Milk (Pre/Post Trial #1 (150/125/100 g/day in wk −3..−1/+1..+4/+5..+8), multiparious cows, week +6): 2.61 weight %
True Protein Content of Produced Milk (Pre/Post Trial #1 (150/125/100 g/day in wk −3..−1/+1..+4/+5..+8), multiparious cows, week +6, two-trial comparison with Control Trial #2 (Table 24)): 2.61 weight %
True Protein Content of Produced Milk (Pre/Post Trial #1 (150/125/100 g/day in wk −3..−1/+1..+4/+5..+8), multiparious cows, week +7): 2.57 weight %
True Protein Content of Produced Milk (Pre/Post Trial #1 (150/125/100 g/day in wk −3..−1/+1..+4/+5..+8), multiparious cows, week +7, two-trial comparison with Control Trial #2 (Table 24)): 2.57 weight %
True Protein Content of Produced Milk (Pre/Post Trial #1 (150/125/100 g/day in wk −3..−1/+1..+4/+5..+8), multiparious cows, week +8): 2.65 weight %
True Protein Content of Produced Milk (Pre/Post Trial #1 (150/125/100 g/day in wk −3..−1/+1..+4/+5..+8), multiparious cows, week +8, two-trial comparison with Control Trial #2 (Table 24)): 2.65 weight %
True Protein Content of Produced Milk (Pre/Post Trial #1 (150/125/100 g/day in wk −3..−1/+1..+4/+5..+8), multiparious cows, weeks +1 through +4): 3.18 weight %
True Protein Content of Produced Milk (Pre/Post Trial #1 (150/125/100 g/day in wk −3..−1/+1..+4/+5..+8), multiparious cows, weeks +1 through +4, two-trial comparison with Control Trial #2 (Table 24)): 3.18 weight %
True Protein Content of Produced Milk (Pre/Post Trial #1 (150/125/100 g/day in wk −3..−1/+1..+4/+5..+8), multiparious cows, weeks +1 through +8): 2.90 weight %
True Protein Content of Produced Milk (Pre/Post Trial #1 (150/125/100 g/day in wk −3..−1/+1..+4/+5..+8), multiparious cows, weeks +1 through +8, two-trial comparison with Control Trial #2 (Table 24)): 2.90 weight %
True Protein Content of Produced Milk (Pre/Post Trial #1 (150/125/100 g/day in wk −3..−1/+1..+4/+5..+8), multiparious cows, weeks +5 through +8): 2.62 weight %
True Protein Content of Produced Milk (Pre/Post Trial #1 (150/125/100 g/day in wk −3..−1/+1..+4/+5..+8), multiparious cows, weeks +5 through +8, two-trial comparison with Control Trial #2 (Table 24)): 2.62 weight %
increase in true protein concentration in milk (Pre/Post Trial #1 (150/125/100 g/day) versus Control Trial #2, multiparious cows, weeks +1 through +4 (Table 24)): 4.6%
increase in true protein concentration in milk (Pre/Post Trial #1 (150/125/100 g/day) versus Control Trial #2, multiparious cows, weeks +1 through +8 (Table 24)): 2.8%
True Protein Content of Produced Milk (Pre/Post Trial #2 (75/75/100 g/day in wk −3..−1/+1..+4/+5..+8), multiparious cows, week +1): 3.96 weight %
True Protein Content of Produced Milk (Pre/Post Trial #2 (75/75/100 g/day in wk −3..−1/+1..+4/+5..+8), multiparious cows, week +2): 3.13 weight %
True Protein Content of Produced Milk (Pre/Post Trial #2 (75/75/100 g/day in wk −3..−1/+1..+4/+5..+8), multiparious cows, week +3): 2.89 weight %
True Protein Content of Produced Milk (Pre/Post Trial #2 (75/75/100 g/day in wk −3..−1/+1..+4/+5..+8), multiparious cows, week +4): 2.77^b weight %
True Protein Content of Produced Milk (Pre/Post Trial #2 (75/75/100 g/day in wk −3..−1/+1..+4/+5..+8), multiparious cows, week +5): 2.70 weight %
True Protein Content of Produced Milk (Pre/Post Trial #2 (75/75/100 g/day in wk −3..−1/+1..+4/+5..+8), multiparious cows, week +6): 2.69 weight %
True Protein Content of Produced Milk (Pre/Post Trial #2 (75/75/100 g/day in wk −3..−1/+1..+4/+5..+8), multiparious cows, week +7): 2.64 weight %
True Protein Content of Produced Milk (Pre/Post Trial #2 (75/75/100 g/day in wk −3..−1/+1..+4/+5..+8), multiparious cows, week +8): 2.61 weight %
True Protein Content of Produced Milk (Pre/Post Trial #2 (75/75/100 g/day in wk −3..−1/+1..+4/+5..+8), multiparious cows, weeks +1 through +4): 3.18 weight %
True Protein Content of Produced Milk (Pre/Post Trial #2 (75/75/100 g/day in wk −3..−1/+1..+4/+5..+8), multiparious cows, weeks +1 through +8): 2.91 weight %
True Protein Content of Produced Milk (Pre/Post Trial #2 (75/75/100 g/day in wk −3..−1/+1..+4/+5..+8), multiparious cows, weeks +5 through +8): 2.66 weight %
increase in true protein concentration in milk (average of means of Pre-Partum Trial #2, Pre/Post Trial #1 and Pre/Post Trial #2 versus Control Trial #2, multiparious cows, weeks +1 through +4): 3.8%
increase in true protein concentration in milk (average of means of Pre-Partum Trial #2, Pre/Post Trial #1 and Pre/Post Trial #2 versus Control Trial #2, multiparious cows, weeks +1 through +8): 2.5%
